In US20230158159A1, “CHIMERIC DEGRADERS OF CYCLIN-DEPENDENT KINASE 9 AND USES THEREOF” (Massachusetts Institute of Technology, priority 2020, published 2023):

Columns and labels:
Cyclin T = Cyclin T protein levels, Western blot, MOLT-4 cells; format: cell-based, human; settings: MOLT-4 leukemia cells, 10 μM, 8 h treatment time
Protocol: Compounds 4 and 5 (KI-ARv-03-D09 and -D10) incorporate such bi-aryl extensions and were therefore tested for their ability to degrade CDK9 and/or its associated cyclin T. In addition, the corresponding molecules KB-0742-D01 and -D02 which comprise the […] warhead and bi-aryl extensions were evaluated.

CDK9 [1] = molecular target: T1, CDK9 (Homo sapiens, UniProt P50750); assay: CDK9 degradation assay, Western blot, MOLT4 cells; format: cell-based; parameters: endogenous in cells; host or cells: MOLT4 (MOLT-4); settings: for CDK9 protein levels: MOLT-4 leukemia cells, 8 h treatment time; for reduction of CDK9 protein levels: 1 μM, compared to DMSO and parent compound KI-ARv3; for concentration at which the concentration dependent decrease of CDK9 levels starts: dose range 10 nM-10 μM
Protocol: Efficiencies were measured by monitoring their impact on CDK9 itself as well as downstream targets of CDK9 phosphorylation such as AR and Pol II.

CDK9 [2] = molecular target: T1, CDK9; assay: CDK9 degradation assay, Western blot, MV-4-11 cells; format: cell-based; parameters: endogenous in cells
Protocol: (§1) FIGS. 8A-C show evaluation of KI-ARv3-D07 and -08 in MV-4-11 (FIG. 8A) and Rh-30 (FIG. 8C) cells as well as side by side comparison of both cell lines (FIG. 8B). […] FIG. 8B treatment time is 8 hr.
(§2) The effect of KI-ARv3-D07 and -08 on impacting CDK9 levels in the additional cell lineages MV-4-11 (leukemia cell line) and the Rh-30 (rhabdomyosarcoma cell line) at 6 h and 8 h treatment times (FIG. 8) was also evaluated. […] In Rh-30 no changes in CDK9 levels were detected at any compound concentration (10 nM, 100 nM, 500 nM, 1 μM, 10 μM) at either 6 h or 8 h treatment time (FIGS. 8B and 8C).

CDK9 [3] = molecular target: T1, CDK9; assay: CDK9 degradation assay, Western blot, 22Rv1 cells; format: cell-based; parameters: endogenous in cells; host or cells: 22Rv1; settings: for reduction of CDK9 levels / degradation of CDK9: 10 nM-10 μM
Protocol: (§3) Compounds were evaluated in ARv7 positive 22Rv1 cells in order to assess their potential to degrade CDK9 and its associated downstream phosphorylation targets Pol II as well as AR and related splice variants (FIGS. 6 and 7).

CDK9 [4] = molecular target: T1, CDK9; assay: CDK9 degradation assay, Western blot, Rh-30 cells; format: cell-based; parameters: endogenous in cells; host or cells: 22Rv1; settings: for changes in CDK9 levels: Rh-30 cells, 10 nM, 100 nM, 500 nM, 1 μM, 10 μM, 6 h or 8 h
Protocol: as §1
FIGS. 9A-D show evaluation of KI-ARv3-D11 and -D18 in 22Rv1 (FIG. 9A, 16 h treatment time), MOLT-4 (FIG. 9B, 7 h treatment time), and Rh-30 (FIGS. 9C and 9D, 16 h treatment time) cell lines.
as §2

AR = AR and AR splice variant protein levels, Western blot, 22Rv1 cells; format: cell-based; settings: FIG. 7 (24 hours, 10 nM-10 μM)
Protocol: as §3

Pol II = Pol II protein levels, Western blot, 22Rv1 cells; format: cell-based; settings: FIG. 7 (24 hours, 10 nM-10 μM)
Protocol: as §3

[5] = MOLT4 cells, 1 μM and 5 μM, 6 hours, compared to DMSO
[6] = MOLT4 cells, low dose 1 μM, 24 hours

T1 sequence (P50750 whole entry): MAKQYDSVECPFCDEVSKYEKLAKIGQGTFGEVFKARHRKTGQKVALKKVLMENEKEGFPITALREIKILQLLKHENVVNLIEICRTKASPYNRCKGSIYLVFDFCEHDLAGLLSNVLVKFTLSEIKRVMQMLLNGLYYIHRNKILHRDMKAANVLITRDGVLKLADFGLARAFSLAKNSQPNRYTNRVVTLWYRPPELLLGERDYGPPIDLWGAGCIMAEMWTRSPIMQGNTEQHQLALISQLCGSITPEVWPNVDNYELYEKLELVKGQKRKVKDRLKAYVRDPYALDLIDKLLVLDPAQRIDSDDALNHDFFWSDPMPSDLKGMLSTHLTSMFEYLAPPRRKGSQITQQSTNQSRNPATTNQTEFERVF
T1 sequence (O60563 whole entry partner): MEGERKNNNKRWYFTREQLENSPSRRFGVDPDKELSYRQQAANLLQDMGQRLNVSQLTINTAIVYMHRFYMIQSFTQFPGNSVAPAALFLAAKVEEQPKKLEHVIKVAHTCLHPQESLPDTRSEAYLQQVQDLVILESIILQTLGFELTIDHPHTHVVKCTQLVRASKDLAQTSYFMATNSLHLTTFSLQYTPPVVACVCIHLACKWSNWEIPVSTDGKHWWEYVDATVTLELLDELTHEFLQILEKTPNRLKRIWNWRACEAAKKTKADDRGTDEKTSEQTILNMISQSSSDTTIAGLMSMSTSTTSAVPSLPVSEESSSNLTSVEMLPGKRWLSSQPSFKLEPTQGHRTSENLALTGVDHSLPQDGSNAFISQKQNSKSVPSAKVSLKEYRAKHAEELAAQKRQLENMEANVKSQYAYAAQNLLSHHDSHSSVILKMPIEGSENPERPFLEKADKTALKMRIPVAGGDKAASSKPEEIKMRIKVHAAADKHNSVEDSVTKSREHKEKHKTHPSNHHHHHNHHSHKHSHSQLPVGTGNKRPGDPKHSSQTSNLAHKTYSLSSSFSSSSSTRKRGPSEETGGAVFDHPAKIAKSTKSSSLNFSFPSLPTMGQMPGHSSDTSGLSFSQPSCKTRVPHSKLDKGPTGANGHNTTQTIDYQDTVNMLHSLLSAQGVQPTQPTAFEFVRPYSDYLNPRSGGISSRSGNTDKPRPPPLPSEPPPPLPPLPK

Compound | Cyclin T protein levels (Cyclin T) | CDK9 protein levels (CDK9 [1]; 10 μM) | reduction of CDK9 levels (CDK9 [3]; 6 hours) | degradation of CDK9 (CDK9 [3]; 24 hours) | changes in CDK9 levels (CDK9 [4]) | CDK9 degradation (CDK9 [1]; [5]) | reduction of CDK9 protein levels (CDK9 [1]; MOLT4 cells, 6 hours) | concentration at which the concentration dependent decrease of CDK9 levels starts (CDK9 [1]; MOLT4 cells, 6 hours) [nM] | CDK9 degradation (CDK9 [1]; [6]) | other results
CCC(CC)c1cc(N[C@H]2CC[C@H](NC(=O)c3ccc(-c4ccc(CN)cc4)cc3)C2)n2nccc2n1 [KB-0742-D02, 4′-(aminomethyl)-N-((1S,3S)-3-((5-(pentan-3-yl)pyrazolo[1,5-a]pyrimidin-7-yl)amino)cyclopentyl)-[1,1′-biphenyl]-4-carboxamide] | reduction in protein levels | reduction in protein levels |  |  |  |  |  |  |  | 
CCCc1cc(N[C@@H]2CC[C@@H](NC(=O)CCCCCCCCCNc3cccc4c3C(=O)N(C3CCC(=O)NC3=O)C4=O)C2)n2nccc2n1 (stereo partly drawn) [KI-ARv3-D07, 10-((2-(2,6-Dioxopiperidin-3-yl)-1,3-dioxoisoindolin-4-yl)amino)-N-((1R,3R)-3-((5-propylpyrazolo[1,5-a]pyrimidin-7-yl)amino)cyclopentyl)decanamide] |  |  | no significant reduction | not able to facilitate degradation of CDK9 | no changes | CDK9 degradation was observed | approximately 80% | 100 | reduced | changes in CDK9 levels (CDK9 [2]; 6 h and 8 h, FIGS. 8A and 8B): did not lead to significant changes; degradation of CDK9 (CDK9 [1]; MOLT4 cells, 24 hours, 10 μM): not demonstrated; hook effect on CDK9 degradation (CDK9 [1]; MOLT4 cells, high dose 5 μM, 24 hours): hook effect
CCCc1cc(N[C@@H]2CC[C@@H](NC(=O)c3ccc(-c4ccc(CNc5cccc6c5C(=O)N(C5CCC(=O)NC5=O)C6=O)cc4)cc3)C2)n2nccc2n1 (stereo partly drawn) [KI-ARv3-D08, 4′-(((2-(2,6-dioxopiperidin-3-yl)-1,3-dioxoisoindolin-4-yl)amino)methyl)-N-((1R,3R)-3-((5-propylpyrazolo[1,5-a]pyrimidin-7-yl)amino)cyclopentyl)-[1,1′-biphenyl]-4-carboxamide] |  |  | subtle reduction | significant CDK9 degradation | no changes | CDK9 degradation was observed | approximately 80% | 100 | reduced | global AR protein levels (AR): no observed effect; global Pol II protein levels (Pol II): no observed effect; concentration at which reduction of CDK9 levels starts (CDK9 [2]; 6 h and 8 h treatment time): 350 nM; reduction of CDK9 levels (CDK9 [2]; 6 h and 8 h treatment time): approximately 60%; rescue experiments using proteasome inhibitor MG132 (CDK9 [2]; FIG. 8A): reversible and proteasome dependent; concentration at which reduction in CDK9 protein levels starts (CDK9 [3]; 6 hours): 500 nM; concentration at which significant CDK9 degradation starts (CDK9 [3]; 24 hours): 100 nM; CDK9 degradation (CDK9 [1]; MOLT4 cells, 24 hours, across the whole range 10 nM-10 μM): approx. 80%
CCCc1cc(NC2CCC(NC(=O)c3ccc(-c4ccc(CN)cc4)cc3)C2)n2nccc2n1 (stereo not drawn) [KI-ARv3-D10, 4′-(aminomethyl)-N-(3-((5-propylpyrazolo[1,5-a]pyrimidin-7-yl)amino)cyclopentyl)-[1,1′-biphenyl]-4-carboxamide] | reduction in protein levels | reduction in protein levels |  |  |  |  |  |  |  | 
CCCc1cc(N[C@@H]2CC[C@@H](NC(=O)c3ccc(-c4ccc(CN[C@H](C(=O)N5C[C@H](O)C[C@H]5C(=O)NCc5ccc(-c6scnc6C)cc5)C(C)(C)C)cc4)cc3)C2)n2nccc2n1 [KI-ARv3-D18, (2S,4R)-1-((S)-3,3-dimethyl-2-(((4′-(((1R,3R)-3-((5-propylpyrazolo[1,5-a]pyrimidin-7-yl)amino)cyclopentyl)carbamoyl)-[1,1′-biphenyl]-4-yl)methyl)amino)butanoyl)-4-hydroxy-N-(4-(4-methylthiazol-5-yl)benzyl)pyrrolidine-2-carboxamide] |  |  |  |  |  |  |  |  |  | reduction of CDK9 levels (CDK9 [4]; 25 nM, FIG. 9D (Rh-30, 16 h treatment time)): approximately 80%
